pIC50, pKd: −log10 of the molar value.
Key:
[1] = Inhibition of YAP/TAZ-TEAD interaction in human SK-HEP1 cells incubated for 24 hrs by luciferase reporter gene assay; type: cell-based
[2] = Solubility of the compound in PBS buffer at pH 7.4; type: physicochemical
[3] = Solubility of the compound in SGF buffer at pH 1.2; type: physicochemical
[4] = biological target: T1, Transcriptional enhancer factor TEF-4 (Homo sapiens, UniProt Q15562); test: Binding affinity to human TEAD2 (217 to 447 residues) expressed in Escherichia coli BL21 Star (DE3) by surface plasmon resonance assay
[5] = biological target: T2, Transcriptional enhancer factor TEF-3 (Homo sapiens, UniProt Q15561); test: Binding affinity to human TEAD4 (217 to 434 residues) expressed in Escherichia coli BL21 Star (DE3) by surface plasmon resonance assay
[6] = biological target: T3, Transcriptional enhancer factor TEF-1 (Homo sapiens, UniProt P28347); test: Binding affinity to human TEAD1 (209 to 426 residues) expressed in Escherichia coli BL21 Star (DE3) by surface plasmon resonance assay
[7] = biological target: T1, Transcriptional enhancer factor TEF-4; test: Binding affinity to human TEAD2 (217 to 447 residues) expressed in Escherichia coli BL21 Star (DE3) assessed as change in melting temperature incubated for 2 hrs by measuring tryptophane fluorescence by Nano Differential scanning fluorometry
[8] = biological target: T3, Transcriptional enhancer factor TEF-1; test: Inhibition of pSF-CMV-P-FLAG tagged human TEAD1 palmitoylation transfected in HEK293 cells at 10 uM incubated for 6 hrs by Western blot analysis relative to control; type: cell-based
NCI-H226 = test: Cytotoxicity against human NCI-H226 cells assessed as cell viability at 10 uM measured for 7 days by celltiter-glo assay; type: functional, cell-based; settings: NCI-H226, 168 h
[9] = biological target: T4, Transcriptional enhancer factor TEF-5 (Homo sapiens, UniProt Q99594); test: Binding affinity to human TEAD3 (216 to 435 residues) expressed in Escherichia coli BL21 Star (DE3) assessed as change in melting temperature incubated for 2 hrs by measuring tryptophane fluorescence by Nano Differential scanning fluorometry
[10] = biological target: T4, Transcriptional enhancer factor TEF-5; test: Inhibition of pSF-CMV-P-FLAG tagged human TEAD3 palmitoylation transfected in HEK293 cells at 10 uM incubated for 6 hrs by Western blot analysis relative to control; type: cell-based
[11] = biological target: T2, Transcriptional enhancer factor TEF-3; test: Binding affinity to human TEAD4 (217 to 434 residues) expressed in Escherichia coli BL21 Star (DE3) assessed as change in melting temperature incubated for 2 hr by measuring tryptophane fluorescence by Nano Differential scanning fluorometry
[12] = biological target: T1, Transcriptional enhancer factor TEF-4; test: Inhibition of pSF-CMV-P-FLAG tagged human TEAD2 palmitoylation transfected in HEK293 cells at 10 uM incubated for 6 hrs by Western blot analysis relative to control; type: cell-based
[13] = biological target: T3, Transcriptional enhancer factor TEF-1; test: Binding affinity to human TEAD1 (209 to 426 residues) expressed in Escherichia coli BL21 Star (DE3) assessed as change in melting temperature incubated for 2 hrs by measuring tryptophane fluorescence by Nano Differential scanning fluorometry
[14] = biological target: T2, Transcriptional enhancer factor TEF-3; test: Inhibition of pSF-CMV-P-FLAG tagged human TEAD4 palmitoylation transfected in HEK293 cells at 10 uM incubated for 6 hrs by Western blot analysis relative to control; type: cell-based
[15] = Microsomal stability in mouse microsomes measured per 10^6 cells; type: ADME, Microsome
[16] = Microsomal stability in human microsomes measured per 10^6 cells; type: ADME, Microsome
[17] = Microsomal stability in human hepatocyte measured per 10^6 cells; type: ADME, cell-based; settings: hepatocytes

T1 sequence (Q15562 whole entry, the tested form may be a part): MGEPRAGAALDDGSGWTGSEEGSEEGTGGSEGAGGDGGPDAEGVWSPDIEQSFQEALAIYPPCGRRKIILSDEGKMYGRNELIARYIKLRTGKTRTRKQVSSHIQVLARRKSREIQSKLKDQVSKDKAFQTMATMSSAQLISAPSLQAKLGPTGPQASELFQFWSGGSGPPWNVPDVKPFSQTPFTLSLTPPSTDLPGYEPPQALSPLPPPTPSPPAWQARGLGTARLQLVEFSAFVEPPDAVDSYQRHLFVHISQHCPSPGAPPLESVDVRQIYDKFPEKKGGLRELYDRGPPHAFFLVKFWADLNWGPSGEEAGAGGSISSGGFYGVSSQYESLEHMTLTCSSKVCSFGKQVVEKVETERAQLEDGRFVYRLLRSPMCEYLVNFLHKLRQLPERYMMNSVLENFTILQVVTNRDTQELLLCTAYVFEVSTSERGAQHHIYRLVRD
T2 sequence (Q15561 whole entry, the tested form may be a part): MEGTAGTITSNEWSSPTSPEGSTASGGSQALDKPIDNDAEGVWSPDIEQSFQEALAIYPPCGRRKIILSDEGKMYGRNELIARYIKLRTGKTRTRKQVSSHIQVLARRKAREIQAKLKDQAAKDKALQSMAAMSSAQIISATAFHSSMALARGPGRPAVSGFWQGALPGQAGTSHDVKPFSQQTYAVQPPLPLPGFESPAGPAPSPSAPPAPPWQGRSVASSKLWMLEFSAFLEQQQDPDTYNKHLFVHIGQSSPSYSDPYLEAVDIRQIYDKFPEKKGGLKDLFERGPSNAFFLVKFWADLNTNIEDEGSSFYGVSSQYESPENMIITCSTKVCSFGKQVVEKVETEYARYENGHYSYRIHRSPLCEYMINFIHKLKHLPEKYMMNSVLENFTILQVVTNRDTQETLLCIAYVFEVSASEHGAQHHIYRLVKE
T3 sequence (P28347 whole entry, the tested form may be a part): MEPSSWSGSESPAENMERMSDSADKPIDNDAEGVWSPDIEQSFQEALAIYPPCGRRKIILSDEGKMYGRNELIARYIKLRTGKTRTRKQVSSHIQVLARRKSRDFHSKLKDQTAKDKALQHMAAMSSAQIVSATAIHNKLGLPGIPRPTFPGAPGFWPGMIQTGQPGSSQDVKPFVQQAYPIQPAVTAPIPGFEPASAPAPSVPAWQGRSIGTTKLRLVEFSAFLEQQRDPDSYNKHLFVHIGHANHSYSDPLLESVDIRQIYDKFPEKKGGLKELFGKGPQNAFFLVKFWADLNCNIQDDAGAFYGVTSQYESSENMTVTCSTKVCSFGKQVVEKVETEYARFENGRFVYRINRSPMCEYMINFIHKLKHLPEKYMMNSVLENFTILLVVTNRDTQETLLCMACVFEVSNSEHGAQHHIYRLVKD
T4 sequence (Q99594 whole entry, the tested form may be a part): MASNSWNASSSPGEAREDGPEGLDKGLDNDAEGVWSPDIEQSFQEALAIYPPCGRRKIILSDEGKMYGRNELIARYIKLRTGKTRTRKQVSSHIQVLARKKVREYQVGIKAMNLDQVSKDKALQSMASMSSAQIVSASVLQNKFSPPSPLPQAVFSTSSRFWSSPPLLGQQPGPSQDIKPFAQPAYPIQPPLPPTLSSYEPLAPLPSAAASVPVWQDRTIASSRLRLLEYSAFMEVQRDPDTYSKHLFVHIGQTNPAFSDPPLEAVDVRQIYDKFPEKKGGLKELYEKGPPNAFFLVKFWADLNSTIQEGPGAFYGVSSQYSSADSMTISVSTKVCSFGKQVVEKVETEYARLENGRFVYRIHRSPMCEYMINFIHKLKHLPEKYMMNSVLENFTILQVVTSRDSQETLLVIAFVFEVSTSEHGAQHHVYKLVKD

## Cn1cc2c3nc(C(=O)O)ccc3n(-c3ccc(C(F)(F)F)cc3)c2n1
[1]
  pIC50: 7.80

## Cn1cc2c(n1)c1cc(C(=O)O)ccc1n2C1CCCCC1
[1]
  pIC50: 9.14

## O=C(O)c1cnc2c(cnn2C2CCCC2)c1
[1]
  pIC50: 7.80

## Cn1cc2c3cc(C(=O)O)ccc3n(CC3CCCCC3)c2n1
[2]
  solubility: > 40 µg/mL
[1]
  pIC50: 7.02
[3]
  solubility: < 1 µg/mL

## Cn1cc2c3cc(C(=O)O)ccc3n(C3CCC(C(F)(F)F)CC3)c2n1 (configuration not stated)
[2]
  solubility: > 40 µg/mL
[1]
  pIC50: 7.38
[3]
  solubility: < 1 µg/mL

## Cn1cc2c3cc(C(=O)O)ccc3n(-c3ccc(C(F)(F)F)cn3)c2n1
[1]
  pIC50: 8.30

## CCCc1nn(C2CCC(F)(F)CC2)c2ccc(C(=O)O)cc12
[4]
  pKd: 4.37
[1]
  pIC50: 8.96
[5]
  pKd: 5.12
[6]
  pKd: 5.24

## CCn1cc2c3cc(C(=O)O)ccc3n(-c3ccc(C(F)(F)F)cc3)c2n1
[1]
  pIC50: 8.52

## Cn1cc2c3cc(C(=O)O)ccc3n(-c3ccc(C(F)(F)F)nc3)c2n1
[1]
  pIC50: 7.85

## C[C@@H](NC(=O)c1ccc2c(-c3ccc(C(F)(F)F)cc3)cccc2c1)c1cccc(N)n1
[7]
  ΔTm: 3.8 °C
[8]
  inhibition: 83%
NCI-H226
  pIC50: 6.18
[9]
  ΔTm: 5.9 °C
[10]
  inhibition: 91%
[1]
  pIC50: 6.05
[11]
  ΔTm: 1.3 °C
[12]
  inhibition: 51%
[13]
  ΔTm: 5.5 °C
[14]
  inhibition: 66%

## Cn1cc2c3cc(C(=O)O)ccc3n(C3CC4(C3)CC(F)(F)C4)c2n1
[1]
  pIC50: 7.48
[15]
  Stability: < 10 µL/min
[16]
  Stability: < 10 µL/min

## O=C(O)c1ccc2c(cnn2C2CCC(F)(F)CC2)c1
[1]
  pIC50: 7.85

## CCCn1cc2c3cc(C(=O)O)ccc3n(-c3ccc(C(F)(F)F)cc3)c2n1
[1]
  pIC50: 8.15

## Cn1cc2c3cc(C(=O)O)ccc3n(C34CC(C(F)(F)F)(C3)C4)c2n1
[1]
  pIC50: 7.48
[15]
  Stability: < 10 µL/min
[16]
  Stability: < 10 µL/min

## Cn1cc2c3cc(C(=O)O)ccc3n(C)c2n1
[1]
  pIC50: < 4.52
[15]
  Stability: < 10 µL/min
[16]
  Stability: < 10 µL/min

## CNS(=O)(=O)c1ccc(Nc2ccc(C(F)(F)F)cc2)c(-c2cn(C)cn2)c1
[7]
  ΔTm: 7.2 °C
[8]
  inhibition: 97%
NCI-H226
  pIC50: 8.52
[9]
  ΔTm: 2 °C
[10]
  inhibition: 29%
[1]
  pIC50: 9.00
[11]
  ΔTm: 3.5 °C
[12]
  inhibition: 69%
[13]
  ΔTm: 10.2 °C
[14]
  inhibition: 70%

## C[C@H](NC(=O)c1ccc2c(-c3ccc(C(F)(F)F)cc3)cccc2c1)c1ccccn1
[7]
  ΔTm: 9.8 °C
[8]
  inhibition: 93%
NCI-H226
  pIC50: 7.38
[9]
  ΔTm: 10.1 °C
[10]
  inhibition: 93%
[1]
  pIC50: 7.60
[11]
  ΔTm: -2.25 °C
[12]
  inhibition: 87%
[13]
  ΔTm: 10.8 °C
[14]
  inhibition: 93%

## Cn1cc2c3cc(C(=O)O)ncc3n(-c3ccc(C(F)(F)F)cc3)c2n1
[1]
  pIC50: 7.41

## Cn1cc2c(n1)[nH]c1ccc(C(=O)O)cc12
[1]
  pIC50: < 4.52

## Cn1cc2c3cc(C(=O)O)ccc3n(-c3cccc(OC(F)(F)F)c3)c2n1
[1]
  pIC50: 7.96

## O=C(O)c1ccc2c(c1)c1c[nH]nc1n2-c1ccc(C(F)(F)F)cc1
[1]
  pIC50: 6.86

## Cn1ncc2c3cc(C(=O)O)ccc3n(-c3ccc(C(F)(F)F)cc3)c21
[1]
  pIC50: 7.78

## Cn1cc2c3cc(C(=O)O)ccc3n(CC3CC(C(F)(F)F)C3)c2n1 (configuration not stated)
[2]
  solubility: > 40 µg/mL
[1]
  pIC50: 7.28
[15]
  Stability: < 10 µL/min
[3]
  solubility: < 1 µg/mL
[16]
  Stability: < 10 µL/min

## Cn1cc2c3cc(C(=O)O)ccc3n(-c3ccc(C(F)(F)F)c(F)c3)c2n1
[1]
  pIC50: 8.40

## O=c1[nH]c(-c2nccnc2Nc2ccc(C(F)(F)F)cc2)no1
[7]
  ΔTm: 12.3 °C
[8]
  inhibition: 97%
NCI-H226
  pIC50: 6.96
[9]
  ΔTm: 8.2 °C
[10]
  inhibition: 83%
[1]
  pIC50: 7.82
[11]
  ΔTm: 9.8 °C
[12]
  inhibition: 86%
[13]
  ΔTm: 11.2 °C
[14]
  inhibition: 91%

## Cn1cc2c(n1)c1cc(C(=O)O)ccc1n2-c1ccc(C(F)(F)F)cc1
[1]
  pIC50: 8.05

## O=C(O)c1ccc2c(cnn2C2CCCC2)c1
[1]
  pIC50: < 7.52

## Cn1ncc2c1c1cc(C(=O)O)ccc1n2-c1ccc(C(F)(F)F)cc1
[1]
  pIC50: 7.32

## COC1CCC(Cn2c3ccc(C(=O)O)cc3c3cn(C)nc32)CC1 (configuration not stated)
[1]
  pIC50: 6.60

## Cn1cc2c3cc(C(=O)O)ccc3n(CCC(C)(C)C(F)(F)F)c2n1
[2]
  solubility: > 40 µg/mL
[1]
  pIC50: 7.08
[15]
  Stability: < 10 µL/min
[3]
  solubility: < 1 µg/mL
[16]
  Stability: < 10 µL/min

## CNS(=O)(=O)c1ccc(NCc2ccccc2)c(-c2cn(C)cn2)c1
[7]
  ΔTm: -0.7 °C
[8]
  inhibition: 96%
NCI-H226
  pIC50: 6.85
[9]
  ΔTm: 0.4 °C
[10]
  inhibition: 10%
[1]
  pIC50: 7.54
[11]
  ΔTm: -0.1 °C
[12]
  inhibition: 33%
[13]
  ΔTm: 3.4 °C
[14]
  inhibition: 19%

## O=C(O)c1cnc2c(cnn2C2CCC(F)(F)CC2)c1
[1]
  pIC50: 7.55

## O=C(O)c1cnc2c(cnn2C2CCCCC2)c1
[1]
  pIC50: 8.28

## Cn1cc2c3cc(C(=O)O)ccc3n(-c3ccc(OC(F)(F)F)cc3F)c2n1
[1]
  pIC50: 7.57

## Cn1cc2c3cc(C(=O)O)ccc3n(-c3cccc(C(F)(F)F)c3)c2n1
[1]
  pIC50: 7.34

## Cn1cc2c3cc(C(=O)O)cnc3n(-c3ccc(C(F)(F)F)cc3)c2n1
[1]
  pIC50: 8.22

## O=C(O)c1ccc2c(c1)c1cn(C(F)(F)F)nc1n2-c1ccc(C(F)(F)F)cc1
[17]
  Stability: < 4 µL/min
[1]
  pIC50: 8.15

## Cn1cc2c3cc(C(=O)O)ccc3n(-c3ccc(OC(F)(F)F)cc3)c2n1
[17]
  Stability: 19 µL/min
[1]
  pIC50: 8.52
[16]
  Stability: 12 µL/min

## Cn1cc2c3cc(C(=O)O)ccc3n(C3CCCCC3)c2n1
[1]
  pIC50: 9.80

## C[C@H](NC(=O)c1ccc2c(-c3ccc(C(F)(F)F)cc3)cccc2c1)c1cccc(N)n1
[7]
  ΔTm: 13.4 °C
[8]
  inhibition: 92%
NCI-H226
  pIC50: 7.70
[9]
  ΔTm: 13.4 °C
[10]
  inhibition: 91%
[1]
  pIC50: 7.52
[11]
  ΔTm: 1.3 °C
[12]
  inhibition: 87%
[13]
  ΔTm: 14.5 °C
[14]
  inhibition: 93%

## Cn1cc2c3cc(C(=O)O)ccc3n(-c3ccc(F)cc3)c2n1
[1]
  pIC50: 6.79

## N#CCn1cc2c3cc(C(=O)O)ccc3n(-c3ccc(C(F)(F)F)cc3)c2n1
[1]
  pIC50: 7.57

## Cn1cc2c3cc(C(=O)O)ccc3n(CC3CCC(C(F)(F)F)CC3)c2n1 (configuration not stated)
[1]
  pIC50: 7.52

## Cn1cc2c(n1)c1cc(C(=O)O)ccc1n2C1CCCC1
[1]
  pIC50: 7.77

Reference: ChEMBL document CHEMBL5143725, “Optimization of TEAD P-Site Binding Fragment Hit into In Vivo Active Lead MSC-4106” (J Med Chem, 2022)
